Measured values published in ChEMBL document CHEMBL1146512, “Ketene acetal and spiroacetal constituents of the marine fungus Aigialus parvus BCC 5311” (J Nat Prod, 2004).
Calls of active or inactive are those of the source.

Tests used:
[1] = tested on: Human alphaherpesvirus 1; experiment: Antiviral activity against HSV1; assay type: functional, organism-based
[2] = tested on: Plasmodium falciparum; experiment: Antimalarial activity against Plasmodium falciparum K1; assay type: functional, organism-based
[3] = tested on: KB; experiment: Cytotoxicity against human KB cells; assay type: functional, cell-based
[4] = tested on: BC1; experiment: Cytotoxicity against human BC1 cells; assay type: functional, cell-based
[5] = tested on: Mycobacterium tuberculosis; experiment: Antitubercular activity against Mycobacterium tuberculosis H37Ra; assay type: functional, organism-based
[6] = tested on: Candida albicans; experiment: Antifungal activity against Candida albicans; assay type: functional, organism-based

Measured: Activity

CCCCCCC[C@@H]1OC2=C(C(=O)[C@H](C)O2)[C@H](O)[C@@]1(C)O
inactive: [1] | [2] | [3] | [4] | [5] | [6]

COc1cc(O)c2c(c1)[C@@H]([C@H]1C[C@H](O)[C@H](O)[C@@]3(C=CC[C@H](C)O3)O1)OC2=O
inactive: [1] | [2] | [3] | [4] | [5] | [6]
